Here are results for 24 compounds from US11702404B2, “GLP-1R modulating compounds” (priority 2019, dated 2023).

The target in one data set is GLP-1R (Homo sapiens, UniProt P43220). The data set is described as follows: GLP-1R activation: cAMP increase in CHO cells stably expressing GLP-1R. Type of data set: cell-based.
The nature of data set [1]: Microsomal stability, human liver microsomes (predicted hepatic clearance). Conditions: predicted from in vitro microsomal stability data.
Setting [2] is: cAMP increase, CHO cells stably expressing GLP-1R, 10 point dose response, 30 minutes incubation, read-out: EC50.

Where two headings read alike, the source gives them in different places.

Chain of GLP-1R (P43220 24-463): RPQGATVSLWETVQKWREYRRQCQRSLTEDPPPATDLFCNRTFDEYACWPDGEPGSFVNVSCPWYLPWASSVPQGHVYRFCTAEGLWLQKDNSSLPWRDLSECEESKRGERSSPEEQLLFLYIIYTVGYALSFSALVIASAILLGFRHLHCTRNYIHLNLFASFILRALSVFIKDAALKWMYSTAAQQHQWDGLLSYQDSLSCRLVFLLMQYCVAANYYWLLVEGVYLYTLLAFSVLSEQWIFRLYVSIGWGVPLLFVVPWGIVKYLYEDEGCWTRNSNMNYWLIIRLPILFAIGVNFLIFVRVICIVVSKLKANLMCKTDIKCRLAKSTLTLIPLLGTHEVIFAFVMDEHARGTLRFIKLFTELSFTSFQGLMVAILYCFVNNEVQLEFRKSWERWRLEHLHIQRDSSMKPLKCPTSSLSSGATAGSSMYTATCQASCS

As to `N#Cc1ccc(COc2cccc(-c3ccc(Cc4nc5ccc(C(=O)O)cc5n4CC4(CF)CCC4)c(F)c3)n2)c(F)c1` [Example 393, 2-(4-(6-((4-cyano-2-fluorobenzyl)oxy)pyridin-2-yl)-2-fluorobenzyl)-1-((1-(fluoromethyl)cyclobutyl)methyl)-1H-benzo[d]imidazole-6-carboxylic], the EC50 on GLP-1R (setting [2]) worked out at 33.5 nM. The “Predicted Hepatic Clearance (Pred. Cl.)” value in data set [1] was 5 mL/min/kg.

`N#Cc1ccc(COc2cccc(-c3ccc(Cc4nc5ccc(C(=O)O)cc5n4CC4CCC4)c(F)c3)n2)c(F)c1` [Example 382, 2-(4-(6-((4-cyano-2-fluorobenzyl)oxy)pyridin-2-yl)-2-fluorobenzyl)-1-(cyclobutylmethyl)-1H-benzo[d]imidazole-6-carboxylic acid]: the concentration giving a half-maximal response (EC50) on GLP-1R (setting [2]) was 8.7 nM. For the same compound, the “Predicted Hepatic Clearance (Pred. Cl.)” value in data set [1] is under 1.83 mL/min/kg.

Take `COCCn1c(Cc2ccc(-c3cccc(OCc4cc(F)c(C#N)cc4OC)n3)cc2F)nc2ccc(C(=O)O)cc21` [Example 251, 2-(4-(6-((4-cyano-5-fluoro-2-methoxybenzyl)oxy)pyridin-2-yl)-2-fluorobenzyl)-1-(2-methoxyethyl)-1H-benzo[d]imidazole-6-carboxylic acid]: the EC50 at GLP-1R (setting [2]) amounted to 3.13 nM. For the same compound, the “Predicted Hepatic Clearance (Pred. Cl.)” value in data set [1] is under 1.83 mL/min/kg.

For `CC(=O)N1CC[C@@H]1Cn1c(Cc2ccc(-c3cccc(OCc4ccc(C#N)cc4F)n3)cc2F)nc2ccc(C(=O)O)cc21` [Example 483, (R)-1-((1-acetylazetidin-2-yl)methyl)-2-(4-(6-((4-cyano-2-fluorobenzyl)oxy)pyridin-2-yl)-2-fluorobenzyl)-1H-benzo[d]imidazole-6-carboxylic acid], the EC50 at GLP-1R (read-out: EC50) stood at 3.94 nM. In data set [1], the “Predicted Hepatic Clearance (Pred. Cl.)” value was 2.5 mL/min/kg.

On to `N#CCC1(Cn2c(Cc3cc(F)c(-c4ncc(F)c(OCc5ccc(C#N)cc5F)n4)cc3F)nc3ccc(C(=O)O)cc32)CC1` [Example 133, 2-(4-(4-((4-cyano-2-fluorobenzyl)oxy)-5-fluoropyrimidin-2-yl)-2,5-difluorobenzyl)-1-((1-(cyanomethyl)cyclopropyl)methyl)-1H-benzo[d]imidazole-6-carboxylic acid], for which, on GLP-1R (setting [2]), the EC50 came out at 0.26 nM. Further, the “Predicted Hepatic Clearance (Pred. Cl.)” value in data set [1] is 5.58 mL/min/kg.

For the compound `N#CCC1(n2c(Cc3ccc(-c4cccc(OCc5ccc(C#N)cc5F)n4)cc3F)nc3ccc(C(=O)O)cc32)CC1` [Example 376, 2-(4-(6-((4-cyano-2-fluorobenzyl)oxy)pyridin-2-yl)-2-fluorobenzyl)-1-(1-(cyanomethyl)cyclopropyl)-1H-benzo[d]imidazole-6-carboxylic acid], the 50% effective concentration (EC50) at GLP-1R (setting [2]) was 1.53 nM. In addition, the “Predicted Hepatic Clearance (Pred. Cl.)” value in data set [1] is 3.83 mL/min/kg.

Regarding `N#Cc1cc(F)c(COc2nccc(-c3cc(F)c(Cc4nc5c(F)cc(C(=O)O)cc5n4C[C@@H]4CCO4)cc3F)n2)cc1F` [Example 677], the concentration giving a half-maximal response (EC50) at GLP-1R (setting [2]) was determined as 0.06 nM. Also, in data set [1], the “Predicted Hepatic Clearance (Pred. Cl.)” value was 1.83 mL/min/kg.

For `COCCn1c(Cc2ccc(-c3cccc(OCC(=O)c4ccc(Cl)cc4)n3)cc2F)nc2ccc(C(=O)O)cc21` [Example 212, 2-(4-(6-(2-(4-Chlorophenyl)-2-oxoethoxy)pyridin-2-yl)-2-fluorobenzyl)-1-(2-methoxyethyl)-1H-benzo[d]imidazole-6-carboxylic acid], the EC50 at GLP-1R (setting [2]) was 80.1 nM. Also, the “Predicted Hepatic Clearance (Pred. Cl.)” value in data set [1] was under 1.83 mL/min/kg.

Take `N#Cc1ccc(COc2cccc(-c3cc(F)c(Cc4nc5ccc(C(=O)O)cc5n4C[C@@H]4CC(F)(F)CO4)cc3F)n2)c(F)c1` (racemic) [Example 573, 2-(4-(6-((4-cyano-2-fluorobenzyl)oxy)pyridin-2-yl)-2,5-difluorobenzyl)-1-((4,4-difluorotetrahydrofuran-2-yl)methyl)-1H-benzo[d]imidazole-6-carboxylic acid]: the concentration giving a half-maximal response (EC50) at GLP-1R (setting [2]) was 0.89 nM. For the same compound, the “Predicted Hepatic Clearance (Pred. Cl.)” value in data set [1] is 6.5 mL/min/kg.

As for `COCCn1c(Cc2cc(F)c(-c3cccnc3OCc3ccc(C#N)cc3F)cc2F)nc2ccc(C(=O)O)cc21` [Example 211, 2-(4-(2-((4-cyano-2-fluorobenzyl)oxy)pyridin-3-yl)-2,5-difluorobenzyl)-1-(2-methoxyethyl)-1H-benzo[d]imidazole-carboxylic acid], the EC50 at GLP-1R (setting [2]) came out at 126 nM. The “Predicted Hepatic Clearance (Pred. Cl.)” value in data set [1] is 8.17 mL/min/kg.

In the case of `COCCn1c(Cc2ccc(-c3cccc(OCc4ccc(C(F)(F)F)nc4F)n3)cc2F)nc2ccc(C(=O)O)cc21` [Example 487, 2-(2-fluoro-4-(6-((2-fluoro-6-(trifluoromethyl)pyridin-3-yl)methoxy)pyridin-2-yl)benzyl)-1-(2-methoxyethyl)-1H-benzo[d]imidazole-6-carboxylic acid], the EC50 on GLP-1R (setting [2]) came to 100 nM. For the same compound, the “Predicted Hepatic Clearance (Pred. Cl.)” value in data set [1] was 5.33 mL/min/kg.

With `N#Cc1ccc(COc2nccc(-c3ccc(Cc4nc5c(F)cc(C(=O)O)cc5n4C[C@@H]4CCO4)c(F)c3)n2)c(F)c1` [Example 406, (S)-2-(4-(2-((4-cyano-2-fluorobenzyl)oxy)pyrimidin-4-yl)-2-fluorobenzyl)-4-fluoro-1-(oxetan-2-ylmethyl)-1H-benzo[d]imidazole-6-carboxylic acid], the EC50 on GLP-1R (setting [2]) was 0.18 nM. Besides, the “Predicted Hepatic Clearance (Pred. Cl.)” value in data set [1] is 3.83 mL/min/kg.

As for `COCCn1c(Cc2ccc(-c3cccc(O[C@@H](C)c4ccccc4)n3)cc2F)nc2ccc(C(=O)O)cc21` [Example 494, (S)-2-(2-fluoro-4-(6-(1-phenylethoxy)pyridin-2-yl)benzyl)-1-(2-methoxyethyl)-1H-benzo[d]imidazole-6-carboxylic acid], the EC50 at GLP-1R (setting [2]) was found to be 4550 nM. Also, the “Predicted Hepatic Clearance (Pred. Cl.)” value in data set [1] is 13.2 mL/min/kg.

Take `CO[C@@H]1CCCC[C@@H]1n1c(Cc2cc(F)c(-c3cccc(OCc4ccc(C#N)cc4F)n3)cc2F)nc2ccc(C(=O)O)cc21` [Example 725]: the concentration for a half-maximal effect (EC50) on GLP-1R (setting [2]) is 3.68 nM. In data set [1], the “Predicted Hepatic Clearance (Pred. Cl.)” value was 9.5 mL/min/kg.

As for `N#CCC1(Cn2c(Cc3c(F)cc(-c4ccnc(OCc5ccc(C#N)cc5F)n4)cc3F)nc3ccc(C(=O)O)cc32)CC1` [Example 399, 2-(4-(2-((4-cyano-2-fluorobenzyl)oxy)pyrimidin-4-yl)-2,6-difluorobenzyl)-1-((1-(cyanomethyl)cyclopropyl)methyl)-1H-benzo[d]imidazole-6-carboxylic acid], the EC50 on GLP-1R (setting [2]) was 2.81 nM. Besides, the “Predicted Hepatic Clearance (Pred. Cl.)” value in data set [1] is 3.3 mL/min/kg.

Regarding `O=C(O)c1ccc2nc(Cc3ccc(-c4ccc(F)c(OCc5ccc(Cl)cc5F)c4)cc3F)n(CCO)c2c1` [Example 476, 2-[[4-[3-[(4-chloro-2-fluoro-phenyl)methoxy]-4-fluoro-phenyl]-2-fluoro-phenyl]methyl]-3-(2-hydroxyethyl)benzimidazole-5-carboxylic acid], at GLP-1R (setting [2]), the EC50 was 366 nM. Moreover, the “Predicted Hepatic Clearance (Pred. Cl.)” value in data set [1] is 2.17 mL/min/kg.

Regarding `N#Cc1ccc(COc2cccc(-c3ccc(Cc4nc5c(F)cc(C(=O)O)cc5n4CC4(CF)CC4)c(F)c3)n2)c(F)c1` [Example 361, 2-(4-(6-((4-cyano-2-fluorobenzyl)oxy)pyridin-2-yl)-2-fluorobenzyl)-4-fluoro-1-((1-(fluoromethyl)cyclopropyl)methyl)-1H-benzo[d]imidazole-6-carboxylic acid], the EC50 on GLP-1R (setting [2]) turned out to be 0.74 nM. In data set [1], the “Predicted Hepatic Clearance (Pred. Cl.)” value is 2.83 mL/min/kg.

As to `COCCn1c(Cc2ccc(-c3cccc(OCc4ccc(C#N)cc4F)n3)c3c2COC3)nc2ccc(C(=O)O)cc21` [Example 903, 2-((7-(6-((4-cyano-2-fluorobenzyl)oxy)pyridin-2-yl)-1,3-dihydroisobenzofuran-4-yl)methyl)-1-(2-methoxyethyl)-1H-benzo[d]imidazole-6-carboxylic acid], the EC50 at GLP-1R (setting [2]) stood at 107 nM. Also, the “Predicted Hepatic Clearance (Pred. Cl.)” value in data set [1] is 1.83 mL/min/kg.

Regarding `COCCn1c(Cc2ccc(-c3nc(OCc4ccc(C#N)cc4F)ccc3C#N)cc2F)nc2ccc(C(=O)O)cc21` [Example 81, 2-(4-(3-cyano-6-((4-cyano-2-fluorobenzyl)oxy)pyridin-2-yl)-2-fluorobenzyl)-1-(2-methoxyethyl)-1H-benzo[d]imidazole-6-carboxylic acid], the EC50 on GLP-1R (setting [2]) was 291 nM. In addition, the “Predicted Hepatic Clearance (Pred. Cl.)” value in data set [1] is 10.7 mL/min/kg.

For `COCCC1(Cn2c(Cc3ccc(-c4cccc(OCc5ccc(C#N)cc5F)n4)cc3F)nc3ccc(C(=O)O)cc32)CC1` [Example 291, 2-(4-(6-((4-cyano-2-fluorobenzyl)oxy)pyridin-2-yl)-2-fluorobenzyl)-1-((1-(2-methoxyethyl)cyclopropyl)methyl)-1H-benzo[d]imidazole-6-carboxylic acid], at GLP-1R (setting [2]), the concentration giving a half-maximal response (EC50) was 1.06 nM. The “Predicted Hepatic Clearance (Pred. Cl.)” value in data set [1] was under 1.83 mL/min/kg.

As for `COCCn1c(Cc2ccc(-c3cccc(OCc4ccc(C#N)cc4F)n3)c(C#N)c2)nc2ccc(C(=O)O)cc21` [Example 526, 2-(3-cyano-4-(6-((4-cyano-2-fluorobenzyl)oxy)pyridin-2-yl)benzyl)-1-(2-methoxyethyl)-1H-benzo[d]imidazole-6-carboxylic acid], at GLP-1R (EC50 (nM)), a half-maximal response (EC50) required 70.9 nM. For the same compound, the “Predicted Hepatic Clearance (Pred. Cl.)” value in data set [1] is 7.5 mL/min/kg.

As to `N#Cc1ccc(COc2cccc(-c3cc(F)c(Cc4nc5ccc(C(=O)O)cc5n4CC4(F)CC4)cc3F)n2)c(F)c1` [Example 729], the EC50 at GLP-1R (setting [2]) worked out at 1.03 nM. Also, the “Predicted Hepatic Clearance (Pred. Cl.)” value in data set [1] was 1.83 mL/min/kg.

Consider `N#Cc1ccc(COc2cccc(-c3cc(F)c(Cc4nc5ccc(C(=O)O)cc5n4CC4(n5ccnn5)CC4)cc3F)n2)c(F)c1` [Example 577, 1-((1-(1H-1,2,3-triazol-1-yl)cyclopropyl)methyl)-2-(4-(6-((4-cyano-2-fluorobenzyl)oxy)pyridin-2-yl)-2,5-difluorobenzyl)-1H-benzo[d]imidazole-6-carboxylic acid], for which, at GLP-1R (setting [2]), the EC50 is 0.4 nM. Moreover, the “Predicted Hepatic Clearance (Pred. Cl.)” value in data set [1] is 7.5 mL/min/kg.

Consider `Cn1nnc(Cn2c(Cc3ccc(-c4cccc(OCc5ccc(C#N)cc5F)n4)cc3F)nc3ccc(C(=O)O)cc32)n1` [Example 226, 2-(4-(6-((4-cyano-2-fluorobenzyl)oxy)pyridin-2-yl)-2-fluorobenzyl)-1-((2-methyl-2H-tetrazol-5-yl)methyl)-1H-benzo[d]imidazole-6-carboxylic acid], for which the concentration for a half-maximal effect (EC50) at GLP-1R (setting [2]) turned out to be 139 nM. For the same compound, the “Predicted Hepatic Clearance (Pred. Cl.)” value in data set [1] is 3.67 mL/min/kg.
